{"source": "patent US20150291597A1", "about": "“NOVEL ORALLY BIOAVAILABLE BREATHING CONTROL MODULATING COMPOUNDS, AND METHODS OF USING SAME” (Galleon Pharmaceuticals, Inc., priority 2012, published 2015)", "key": {"rat": {"system": "rat", "experiment": "Minute volume and mean blood pressure in the rat upon oral dosing (plethysmography, telemetry)", "format": "in vivo, Male Sprague Dawley rats", "details": "20 mg/kg PO", "description": "Compounds were administered orally to rat and evaluated for effects on ventilatory and cardiovascular parameters.\nMale Sprague Dawley rats (0.30-0.38 kg, n=4) were surgically implanted with ECG/blood pressure telemeters (Telemetry Research, Inc., Auckland, New Zweland) prior to data collection. The animals were acclimated to plethysmography chambers for a minimum period of 60 minutes. After this time, test compound (20 mg/kg, PO) or vehicle (0.9% saline) was administered by oral gavage. Respiratory and cardiovascular data were collected immediately thereafter for a period of 3 h using plethysmography (Buxco, Inc.) and telemetry (LabChart data acquisition software, AD instruments, Inc.). Each rat received test compound and vehicle during the course of the study and thus each animal served as its own control. Vehicle effects were subtracted from drug response (Drug-Veh) and the difference was reported as a mean percent (%) change over time±SE."}, "[1]": {"system": "rats chronically treated with morphine", "experiment": "Apnea, sleep architecture and ventilatory response in rats chronically treated with morphine", "format": "in vivo, Adult male lean Zucker rats", "details": "7 mg/kg PO, versus vehicle", "description": "The objective of this study was to quantify the effects of select compounds of this invention on apnea, ventilation and sleep structure in a rat model. The study consisted of two treatment conditions: (1) chronic morphine and test compound, such as Compound 5b administered orally (7 mg/kg, PO), and (2) chronic morphine and oral vehicle. Adult male lean Zucker rats were anesthetized for electroencephalogram (EEG) and electromyogram (EMG) telemeter implantation. At least 1 week was permitted post-surgery before animals were used further. Morphine sulfate was added to the drinking water of singly housed rats beginning with 0.1 mg/ml morphine and increasing the concentration in increments so that a final concentration of 0.6 mg/ml was achieved within 2 weeks. All respiratory measurements were made while animals were unrestrained in whole-body plethysmography chambers to permit animals to sleep and move freely. To avoid eliciting withdrawal, morphine water was continuously available during each plethysmography experiment. Minute volume and the number of central sleep apneas (CSA) were measured during all treatment conditions. A period of at least 1 to 1.5 h was permitted for animals to acclimate to the chamber before data collection began. The biopotential telemeters and their receivers were placed directly under the plethysmographic chambers and were used to continuously to capture EEG, EMG, and body temperature signals. Only data collected between the hours of 10 am to 4:30 pm were used in the final analysis to control for the effects of circadian rhythm on breathing.\nCompound 5b (7 mg/kg) or an equivalent volume of vehicle was administered via an oral gavage tube at 12 pm. Data collected between 10 am and 12 pm represented baseline (pre-drug) conditions. Data collected between 12 pm and 4:30 pm represented post-drug conditions. Analyses of the EEG and EMG waveforms for the purpose of staging sleep-wake behavior in rats as awake, NREM sleep, and REM sleep were based on previous sleep studies involving rodents. Central apneas were defined as a respiratory cycle period that was more than or equal to twice the average cycle period during baseline recordings, which is consistent with how others have defined central apneas in rodents. Percent time in each sleep-wake state, minute volume, and central sleep apnea counts were compared between treatment groups using a two-way ANOVA (factors: drug treatment and time). Breathing data during wakefulness was not analyzed because movement prevents measurement of accurate volumes when using whole-body plethysmography. When differences were detected with ANOVA, Student-Neuman-Keuls post hoc tests were run for all main effects and interactions. Differences were considered significant when p<0.05. Values are expressed as means±SE."}, "carotid body": {"system": "carotid body", "experiment": "Carotid sinus nerve transection (CSNTx) in urethane anesthetized rats, minute volume", "format": "in vivo, adult male Sprague Dawley rats", "description": "The objective of this study was to assess the role of carotid body sinus nerve activity on ventilation, as measured by minute volume, in rats treated with compounds of this invention, such as Compound 5b, versus a saline-treated group. Urethane anesthetized adult male Sprague Dawley rats and tracheal spirometry (pneumotachometry) techniques were used (Example 56). Vehicle (saline) and Compound 5b (0.1 and 0.3 mg/kg) were administered as IV boluses to 5 rats. The carotid sinus nerves were isolated in the neck and transected thereby denervating both carotid bodies. Vehicle and Compound 5b were re-administered IV. Animals were exposed to low inspired O2 (hypoxia) to confirm functionally complete nerve transections. The change in minute volume ΔVE (% of baseline above baseline) in response to saline/Compound 5b before and after carotid body denervation was measured."}, "[2]": {"experiment": "Solubility of the hydrogen sulfate salt in solvents", "format": "physicochemical"}, "anesthetized rats": {"system": "anesthetized rats", "experiment": "Anesthetized rat spirometry screening assay (respiratory rate, tidal volume, minute volume; IV bolus)", "format": "in vivo", "details": "0.3 mg/kg IV bolus", "from_the_text": "Anesthetized rats provide a quick method of screening compounds for respiratory and cardiovascular activity. In contrast to the conscious rat model, this model offers an experimental set up with less variation in the baseline cardiovascular and respiratory measures. Compounds screened in this assay may be examined in a conscious rat model.\nRats were initially anesthetized with 3% isoflurane (inhaled) and femoral artery and vein cannulas were surgically inserted. Once cannulated, the rats were transitioned to urethane anesthesia (1.5 g/kg; i.v.) and a tracheal cut-down was performed. After placing the tracheal cannula, it was connected to a pneumotach to record respiratory airflow from which respiratory rate (RR), tidal volume (VT), and their product minute volume were derived. After the surgical preparation was complete, animals were allowed to stabilize for 30 minutes while respiratory rate, tidal volume, minute volume, blood pressure and heart rate were recorded continuously. Arterial blood gases (ABG) were obtained from arterial blood collected from the femoral artery. ABG measurements were taken before and 6 minutes after vehicle and each dose of compound administered. Compounds being screened were administered via bolus injections through the venous cannula followed by a saline flush (total time of administration is approximately 30 seconds), and the animal was monitored for at least 6 minutes for changes in cardiovascular efforts. Compounds were prepared in formulations identified to ensure optimal solubility. As such, vehicle controls were matched for the formulation of each compound tested. Dosing of the compound being screened was 0.1 and 0.3 mg/kg. The next dose was not administered until all cardiovascular and respiratory measures had returned to baseline levels. The positive control compounds used were N-[4,6-di-(n-propylamino)-[1,3,5]triazin-2-yl]-O,N-dimethyl-hydroxylamine or N-[2,6-di-(n-propylamino)-[1,3]pyrimidin-4-yl]-O,N-dimethyl-hydroxylamine, both administered at the end of each screening experiment (0.3 mg/kg dose) to validate the experiment and also to serve as a measure with which the compound being screened could be compared.\nData were analyzed by collecting cardiovascular and respiratory data in 30 second averages (BINs). Data were plotted 2 minutes before challenge and then 6 minutes after challenge.\nFIGS. 2A-2F summarize the effects of individual compounds on peak minute ventilation (increase in VE), overall increase in 2 minute area under the curve (AUC) which is a cumulative measure of effect, along with compound stability (half-life) in rat and human microsomes."}, "[3]": {"experiment": "Solubility of cyanuric chloride in various solvents", "format": "physicochemical", "details": "10 g in 50 mL, sonicated 1 h", "description": "The solubility of cyanuric chloride was examined as a way to limit its reactivity and the formation of undesired by-products. Cyanuric chloride (10 g) was mixed with 50 mL of indicated solvent (Table 22) and sonicated for 1 h with occasional swirling. If solid material remained as a suspension, it was filtered off and weighed."}}, "note": "Entries after “also recorded” stand apart in the source; their conditions may differ. Structures can show the parent of a compound that is named as a salt."}
{"compound": "C#CCNc1nc(N(C)OC)c2cc[nH]c2n1.Cl", "values": [{"measurement": "melting point", "value": "182 to 184", "unit": "°C"}]}
{"compound": "C#CCN(OC)c1nc(NCCC)nc(NCCC)n1.Cl", "values": [{"measurement": "melting point", "value": "110 to 113", "unit": "°C"}]}
{"compound": "C#CCON(C)c1nc(NCCC)nc(NCCC)n1.Cl", "values": [{"measurement": "melting point", "value": "105 to 107", "unit": "°C"}]}
{"compound": "C#CCNc1nc(NCCC)nc(N(C)OCC#C)n1.Cl", "values": [{"measurement": "melting point", "value": "84 to 86", "unit": "°C"}]}
{"compound": "C#CCNc1nc(NCCC)nc(N(C)OC)n1", "values": [{"measurement": "melting point", "value": "79 to 81", "unit": "°C"}]}
{"compound": "C#CCNc1nc(NCCC)nc(N(C)OC)n1.O=C(O)/C=C\\C(=O)O", "values": [{"measurement": "melting point", "value": "123 to 125", "unit": "°C"}]}
{"compound": "C#CCNc1nc(NCCC)nc(N(C)OC)n1.O=C(O)CC(=O)O", "values": [{"measurement": "melting point", "value": "113 to 115", "unit": "°C"}]}
{"compound": "C#CCNc1nc(NCCC)nc(N(C)OC)n1.O=C(O)/C=C/C(=O)O", "values": [{"measurement": "melting point", "value": "153 to 155", "unit": "°C"}]}
{"compound": "C#CCNc1nc(NC2CCC2)nc(N(C)OC)n1.Cl", "values": [{"measurement": "melting point", "value": "105 to 107", "unit": "°C"}]}
{"compound": "C#CCNc1nc(NCCC)nc(N(C)OC)n1", "note": "[Compound 5b, O,N-Dimethyl-N-[4-(n-propylamino)-6-(prop-2-ynylamino)-[1,3,5]triazin-2-yl]-hydroxylamine hydrogen sulfate]", "values": [{"measurement": "duration of the increase in minute ventilation", "setting": "rat", "value": 120, "unit": "min"}, {"measurement": "increase in minute ventilation compared to baseline", "setting": "rat", "value": "approximately 50%"}, {"measurement": "effect on mean blood pressure", "setting": "rat; during the period of increased ventilation", "value": "no significant effect"}, {"measurement": "central apneas during NREM sleep, percent change from baseline (pre-treatment)", "setting": "[1]", "value": "percent change (decrease) in apnea frequency was present"}, {"measurement": "NREM minute volume (VE)", "setting": "[1]; hydrogen sulfate", "value": "no statistically significant effects; also recorded: trend for an initial increase in minute volume between 0 to 60 min post-dose; also recorded: no discernible effect"}, {"measurement": "REM minute volume", "setting": "[1]; hydrogen sulfate", "value": "no visible effects"}, {"measurement": "frequency of central apneas during NREM sleep", "setting": "[1]; hydrogen sulfate", "value": "decreased apnea frequency at 120 min and 150 min post-gavage compared to vehicle; also recorded: decreased apnea frequency during NREM sleep compared to vehicle and the pre-treatment (baseline) values; also recorded: significantly reduces"}, {"measurement": "frequency of central apneas during REM sleep", "setting": "[1]; hydrogen sulfate", "value": "did not visibly alter; also recorded: no visible effect; also recorded: does not reduce"}, {"measurement": "minute volume prior to carotid body denervation", "setting": "carotid body; 0.1 and 0.3 mg/kg IV bolus", "value": "dose-dependently increased minute volume"}, {"measurement": "ventilatory response after carotid sinus nerve transection", "setting": "carotid body; 0.1 and 0.3 mg/kg IV bolus", "value": "completely abolished the ventilatory response"}, {"measurement": "ventilatory response after SHAM surgery", "setting": "carotid body; IV bolus", "value": "no effect on the ventilatory response"}, {"measurement": "solubility in MeOH", "setting": "[2]; MeOH", "value": "freely soluble"}, {"measurement": "solubility in water", "setting": "[2]; water", "value": "freely soluble"}]}
{"compound": "C#CCNc1nc(NC)nc(NCCC)n1.Cl", "note": "[Compound 7a, N-Methyl-N′-n-propyl-N″-prop-2-ynyl-[1,3,5]triazine-2,4,6-triamine hydrochloride]", "values": [{"measurement": "duration of the increase in minute ventilation", "setting": "anesthetized rats", "value": "approximately 2 minutes"}, {"measurement": "increase in minute ventilation above baseline values", "setting": "anesthetized rats", "value": "up to 85%"}, {"measurement": "increase in respiratory rate", "setting": "anesthetized rats", "value": "up to 46%"}, {"measurement": "increase in tidal volume", "setting": "anesthetized rats", "value": "up to 27%"}]}
{"compound": "C#CCNc1nc(NCCC)nc(N(Cc2ccc(F)cc2)OC)n1", "note": "[Compound 9a, N-(4-Fluorobenzyl)-O-methyl-N-[4-(n-propylamino)-6-(prop-2-ynylamino)-[[1,3,5]triazin-2-yl]-hydroxylamine hydrochloride]", "values": [{"measurement": "duration of the increase in minute ventilation", "setting": "anesthetized rats", "value": "approximately 2 minutes"}, {"measurement": "increase in minute ventilation above baseline values", "setting": "anesthetized rats", "value": "up to 110%"}, {"measurement": "increase in respiratory rate", "setting": "anesthetized rats", "value": "up to 24%"}, {"measurement": "increase in tidal volume", "setting": "anesthetized rats", "value": "up to 72%"}]}
{"compound": "C#CCNc1nc(N)nc(N(C)OC)n1", "note": "[Compound 132, N-(4-Amino-6-prop-2-ynylamino-[1,3,5]triazin-2-yl)-O,N-dimethyl-hydroxylamine]", "values": [{"measurement": "melting point", "value": "172 to 174", "unit": "°C"}]}
{"compound": "Clc1nc(Cl)nc(Cl)n1", "note": "[cyanuric chloride]", "values": [{"measurement": "Solubility of cyanuric chloride", "setting": "[3]; Acetone, 0 °C", "value": "partial crystallization"}, {"measurement": "Solubility of cyanuric chloride", "setting": "[3]; Acetone, r.t.", "value": "soluble"}, {"measurement": "Solubility of cyanuric chloride", "setting": "[3]; DMAc, 0 °C", "value": "soluble"}, {"measurement": "Solubility of cyanuric chloride", "setting": "[3]; DMAc, r.t.", "value": "soluble"}, {"measurement": "Solubility of cyanuric chloride", "setting": "[3]; DMF, 0 °C", "value": "decomposition"}, {"measurement": "Solubility of cyanuric chloride", "setting": "[3]; DMF, r.t.", "value": "decomposition"}, {"measurement": "Solubility of cyanuric chloride", "setting": "[3]; DMSO, 0 °C", "value": "decomposition"}, {"measurement": "Solubility of cyanuric chloride", "setting": "[3]; DMSO, r.t.", "value": "decomposition"}, {"measurement": "Solubility of cyanuric chloride", "setting": "[3]; Dioxane, 0 °C", "value": "soluble"}, {"measurement": "Solubility of cyanuric chloride", "setting": "[3]; Dioxane, r.t.", "value": "soluble"}, {"measurement": "Solubility of cyanuric chloride", "setting": "[3]; IPA, 0 °C", "value": "insoluble"}, {"measurement": "Solubility of cyanuric chloride", "setting": "[3]; MeCN, 0 °C", "value": "insoluble"}, {"measurement": "Solubility of cyanuric chloride", "setting": "[3]; MeCN, r.t.", "value": 150, "unit": "µg/mL"}, {"measurement": "Solubility of cyanuric chloride", "setting": "[3]; THF, 0 °C", "value": "soluble"}, {"measurement": "Solubility of cyanuric chloride", "setting": "[3]; THF, r.t.", "value": "soluble"}, {"measurement": "Solubility of cyanuric chloride", "setting": "[3]; Toluene, 0 °C", "value": "soluble"}, {"measurement": "Solubility of cyanuric chloride", "setting": "[3]; Toluene, r.t.", "value": "soluble"}]}
